Assay results taken from patent US10442803B2, “Tricyclic heterocycles as bet protein inhibitors” (Incyte Corporation, priority 2013, dated 2019).
Where a name gives a salt, the structure may show the parent alone.

System: KMS.12.BM cells
Experiment: KMS.12.BM cell viability assay
Type: cell-based
Conditions: 72 h; KMS.12.BM human myeloma cells, 3 days, Cell Titer-GLO ATP quantitation; read-out: KMS cellular IC50
Procedure, shortened: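 Human myeloma KMS.12.BM cells, 5000 per well in RPMI/10% FBS, exposed 3 days to compound concentration range. Viability from ATP-based Cell Titer-GLO luminescence; IC50 derived.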

Row | SMILES | IC50 [nM]
1 | Cc1cc2c(cc(Nc3cc[nH]n3)c3nnc(C)n32)n1Cc1ccccc1 [Example 200, 6-Benzyl-1,7-dimethyl-N-1H-pyrazol-3-yl-6H-pyrrolo[2,3-e][1,2,4]triazolo[4,3-a]pyridin-4-amine tris(trifluoroacetate) salt] | ≤ 1000
2 | Cc1cc2c(cc(Nc3ncccn3)c3nnc(C)n32)n1Cc1ccccc1 [Example 201, 6-Benzyl-1,7-dimethyl-N-pyrimidin-2-yl-6H-pyrrolo[2,3-e][1,2,4]triazolo[4,3-a]pyridin-4-amine tris(trifluoroacetate) salt] | ≤ 1000
3 | Cc1cc2c(cc(Nc3ccn(C)n3)c3nnc(C)n32)n1Cc1ccccc1 [Example 202, 6-Benzyl-1,7-dimethyl-N-(1-methyl-1H-pyrazol-3-yl)-6H-pyrrolo[2,3-e][1,2,4]triazolo[4,3-a]pyridin-4-amine tris(trifluoroacetate) salt] | ≤ 1000
4 | Cc1cc2c(cc(Nc3nc4ccccc4o3)c3nnc(C)n32)n1Cc1ccccc1 [Example 203, N-1,3-Benzoxazol-2-yl-6-benzyl-1,7-dimethyl-6H-pyrrolo[2,3-e][1,2,4]triazolo[4,3-a]pyridin-4-amine bis(trifluoroacetate) salt] | ≤ 1000
5 | Cc1cc2c(cc(O)c3nnc(C)n32)n1Cc1ccccc1 [Example 204, 6-Benzyl-1,7-dimethyl-6H-pyrrolo[2,3-e][1,2,4]triazolo[4,3-a]pyridin-4-ol trifluoroacetate salt] | 1000 to 10000
6 | Cc1cc2c(cc(Nc3nc4ccccc4[nH]3)c3nnc(C)n32)n1Cc1ccccc1 [Example 205, N-1H-Benzimidazol-2-yl-6-benzyl-1,7-dimethyl-6H-pyrrolo[2,3-e][1,2,4]triazolo[4,3-a]pyridin-4-amine trifluoroacetate salt] | ≤ 1000
7 | Cc1cc2c(cc(NC3CCNCC3)c3nnc(C)n32)n1Cc1ccccc1 [Example 206, 6-Benzyl-1,7-dimethyl-N-piperidin-4-yl-6H-pyrrolo[2,3-e][1,2,4]triazolo[4,3-a]pyridin-4-amine] | ≤ 1000
8 | Cc1cc2c(cc(NC3CCN(C)CC3)c3nnc(C)n32)n1Cc1ccccc1 [Example 207, 6-Benzyl-1,7-dimethyl-N-(1-methylpiperidin-4-yl)-6H-pyrrolo[2,3-e][1,2,4]triazolo[4,3-a]pyridin-4-amine] | ≤ 1000
9 | Cc1cc2c(cc(NCCN3CCOCC3)c3nnc(C)n32)n1Cc1ccccc1 [Example 208, 6-Benzyl-1,7-dimethyl-N-(2-morpholin-4-ylethyl)-6H-pyrrolo[2,3-e][1,2,4]triazolo[4,3-a]pyridin-4-amine] | 1000 to 10000
10 | COCCNc1cc2c(cc(C)n2Cc2ccccc2)n2c(C)nnc12 [Example 209, 6-Benzyl-N-(2-methoxyethyl)-1,7-dimethyl-6H-pyrrolo[2,3-e][1,2,4]triazolo[4,3-a]pyridin-4-amine] | 1000 to 10000
11 | Cc1cc2c(cc(NCCO)c3nnc(C)n32)n1Cc1ccccc1 [Example 210, 2-[(6-Benzyl-1,7-dimethyl-6H-pyrrolo[2,3-e][1,2,4]triazolo[4,3-a]pyridin-4-yl)amino]ethanol] | 1000 to 10000
12 | Cc1cc2c(cc(NC3CCN(S(C)(=O)=O)CC3)c3nnc(C)n32)n1Cc1ccccc1 [Example 211, 6-Benzyl-1,7-dimethyl-N-[1-(methylsulfonyl)piperidin-4-yl]-6H-pyrrolo[2,3-e][1,2,4]triazolo[4,3-a]pyridin-4-amine] | ≤ 1000
13 | CCN1CCC(Nc2cc3c(cc(C)n3Cc3ccccc3)n3c(C)nnc23)CC1 [Example 212, 6-Benzyl-N-(1-ethylpiperidin-4-yl)-1,7-dimethyl-6H-pyrrolo[2,3-e][1,2,4]triazolo[4,3-a]pyridin-4-amine] | ≤ 1000
14 | Cc1cc2c(cc(NC3CCN(C(C)C)CC3)c3nnc(C)n32)n1Cc1ccccc1 [Example 213, 6-Benzyl-N-(1-isopropylpiperidin-4-yl)-1,7-dimethyl-6H-pyrrolo[2,3-e][1,2,4]triazolo[4,3-a]pyridin-4-amine] | ≤ 1000
15 | Cc1cc2c(cc(NC3CCN(C(=O)OC(C)(C)C)CC3)c3nnc(C)n32)n1Cc1ccccc1 [Example 214, tert-Butyl 4-[(6-benzyl-1,7-dimethyl-6H-pyrrolo[2,3-e][1,2,4]triazolo[4,3-a]pyridin-4-yl)amino]piperidine-1-carboxylate] | 1000 to 10000
16 | CC(=O)N1CCC(Nc2cc3c(cc(C)n3Cc3ccccc3)n3c(C)nnc23)CC1 [Example 216, N-(1-Acetylpiperidin-4-yl)-6-benzyl-1,7-dimethyl-6H-pyrrolo[2,3-e][1,2,4]triazolo[4,3-a]pyridin-4-amine] | 1000 to 10000
17 | Cc1cc2c(cc(N[C@H]3CC[C@H](N)CC3)c3nnc(C)n32)n1Cc1ccccc1 [Example 217, trans-N-(6-Benzyl-1,7-dimethyl-6H-pyrrolo[2,3-e][1,2,4]triazolo[4,3-a]pyridin-4-yl)cyclohexane-1,4-diamine] | ≤ 1000
18 | Cc1cc2c(cc(N[C@H]3CC[C@@H](N)CC3)c3nnc(C)n32)n1Cc1ccccc1 [Example 218, cis-N-(6-Benzyl-1,7-dimethyl-6H-pyrrolo[2,3-e][1,2,4]triazolo[4,3-a]pyridin-4-yl)cyclohexane-1,4-diamine] | 1000 to 10000

Row | SMILES | IC50 [nM]
19 | CN[C@H]1CC[C@H](Nc2cc3c(cc(C)n3Cc3ccccc3)n3c(C)nnc23)CC1 [Example 219, trans-N-(6-Benzyl-1,7-dimethyl-6H-pyrrolo[2,3-e][1,2,4]triazolo[4,3-a]pyridin-4-yl)-N′-methylcyclohexane-1,4-diamine] | ≤ 1000
20 | Cc1cc2c(cc(N[C@H]3CC[C@H](N(C)C)CC3)c3nnc(C)n32)n1Cc1ccccc1 [Example 220, trans-N′-(6-Benzyl-1,7-dimethyl-6H-pyrrolo[2,3-e][1,2,4]triazolo[4,3-a]pyridin-4-yl)-N,N-dimethylcyclohexane-1,4-diamine] | 1000 to 10000
21 | CN[C@H]1CC[C@@H](Nc2cc3c(cc(C)n3Cc3ccccc3)n3c(C)nnc23)CC1 [Example 221, cis-N-(6-Benzyl-1,7-dimethyl-6H-pyrrolo[2,3-e][1,2,4]triazolo[4,3-a]pyridin-4-yl)-N′-methylcyclohexane-1,4-diamine] | 1000 to 10000
22 | Cc1cc2c(cc(N[C@H]3CC[C@@H](N(C)C)CC3)c3nnc(C)n32)n1Cc1ccccc1 [Example 222, cis-N′-(6-Benzyl-1,7-dimethyl-6H-pyrrolo[2,3-e][1,2,4]triazolo[4,3-a]pyridin-4-yl)-N,N-dimethylcyclohexane-1,4-diamine] | 1000 to 10000
23 | Cc1nnc2ccc3c(cc(C#N)n3Cc3ccccc3)n12 [Example 227, 6-Benzyl-1-methyl-6H-pyrrolo[2,3-e][1,2,4]triazolo[4,3-a]pyridine-7-carbonitrile trifluoroacetate salt] | ≤ 1000
24 | Cc1cc2c(cc(NCC3CC3)c3nnc(C)n32)n1Cc1ccccc1 [Example 228, 6-Benzyl-N-(cyclopropylmethyl)-1,7-dimethyl-6H-pyrrolo[2,3-e][1,2,4]triazolo[4,3-a]pyridin-4-amine] | 1000 to 10000
25 | CNC(=O)Nc1cc2c(cc(C)n2Cc2ccccc2)n2c(C)nnc12 [Example 229, 1-(6-Benzyl-1,7-dimethyl-6H-pyrrolo[2,3-e][1,2,4]triazolo[4,3-a]pyridin-4-yl)-3-methylurea] | ≤ 1000
26 | Cc1cc2c(cc(NC(N)=O)c3nnc(C)n32)n1Cc1cccc(C(F)(F)F)c1 [Example 230, 1-(1,7-Dimethyl-6-(3-(trifluoromethyl)benzyl)-6H-pyrrolo[2,3-e][1,2,4]triazolo[4,3-a]pyridin-4-yl)urea] | ≤ 1000
27 | Cc1cc2c(cc(NC(N)=O)c3nnc(C)n32)n1Cc1cccc(Cl)c1 [Example 231, 1-(6-(3-Chlorobenzyl)-1,7-dimethyl-6H-pyrrolo[2,3-e][1,2,4]triazolo[4,3-a]pyridin-4-yl)urea] | ≤ 1000
28 | Cc1cc2c(cc(NC(N)=O)c3nnc(C)n32)n1Cc1cc(F)cc(F)c1 [Example 233, 1-(6-(3,5-Difluorobenzyl)-1,7-dimethyl-6H-pyrrolo[2,3-e][1,2,4]triazolo[4,3-a]pyridin-4-yl)urea] | ≤ 1000
29 | Cc1cc2c(cc(NC(N)=O)c3nnc(C)n32)n1Cc1ccc(F)c(F)c1 [Example 234, 1-(6-(3,4-Difluorobenzyl)-1,7-dimethyl-6H-pyrrolo[2,3-e][1,2,4]triazolo[4,3-a]pyridin-4-yl)urea] | ≤ 1000
30 | Cc1cc2c(cc(NC(N)=O)c3nnc(C)n32)n1Cc1cccc(F)c1 [Example 235, 1-(6-(3-Fluorobenzyl)-1,7-dimethyl-6H-pyrrolo[2,3-e][1,2,4]triazolo[4,3-a]pyridin-4-yl)urea] | ≤ 1000
31 | Cc1cc2c(cc(NC(N)=O)c3nnc(C)n32)n1Cc1ccc(F)cc1F [Example 236, 1-(6-(2,4-Difluorobenzyl)-1,7-dimethyl-6H-pyrrolo[2,3-e][1,2,4]triazolo[4,3-a]pyridin-4-yl)urea] | ≤ 1000
32 | Cc1cc2c(cc(NC(N)=O)c3nnc(C)n32)n1Cc1cccc(F)c1F [Example 237, 1-(6-(2,3-Difluorobenzyl)-1,7-dimethyl-6H-pyrrolo[2,3-e][1,2,4]triazolo[4,3-a]pyridin-4-yl)urea] | ≤ 1000
33 | Cc1cc2c(cc(NC(N)=O)c3nnc(C)n32)n1Cc1ccccc1F [Example 238, 1-(6-(2-Fluorobenzyl)-1,7-dimethyl-6H-pyrrolo[2,3-e][1,2,4]triazolo[4,3-a]pyridin-4-yl)urea] | 1000 to 10000
34 | Cc1cc2c(cc(NC(N)=O)c3nnc(C)n32)n1Cc1ccc(F)cc1 [Example 239, 1-(6-(4-Fluorobenzyl)-1,7-dimethyl-6H-pyrrolo[2,3-e][1,2,4]triazolo[4,3-a]pyridin-4-yl)urea] | ≤ 1000
35 | Cc1cc2c(cc(Nc3ccccn3)c3nnc(C)n32)n1Cc1ccccc1 [Example 240, 6-benzyl-1,7-Dimethyl-N-(pyridin-2-yl)-6H-pyrrolo[2,3-e][1,2,4]triazolo[4,3-a]pyridin-4-amine] | 1000 to 10000
36 | Cc1cc2c(cc(NCC3CCC3)c3nnc(C)n32)n1Cc1ccccc1 [Example 241, 6-Benzyl-N-(cyclobutylmethyl)-1,7-dimethyl-6H-pyrrolo[2,3-e][1,2,4]triazolo[4,3-a]pyridin-4-amine] | 1000 to 10000
